These results are taken from US10940139B2, “Compounds that interact with the Ras superfamily for the treatment of cancers, inflammatory diseases, rasopathies, and fibrotic disease” (Shy Therapeutics LLC, priority 2017, dated 2021).

Assay [1] concerns TNFα production in RAW 264.7 macrophage cell line. Kind of assay: Mouse TNF alpha quantification assay (LPS-stimulated macrophages, ELISA). The assay is classed as cell-based. The following applies: RAW264.7, RAW 264.7 murine leukemia virus transformed macrophage cell lines, LPS stimulation, read-out: TNF-α % Inhibition at 30 μM.
The test system of assay [2] is IL6 production in RAW 264.7 macrophage cell line. Kind of assay: Mouse IL6 quantification assay (LPS-stimulated macrophages, ELISA). It counts as cell-based. The following applies: RAW264.7, RAW 264.7 murine leukemia virus transformed macrophage cell lines, LPS stimulation, read-out: IL-6 % Inhibition at 30 μM.

Structures are written as SMILES.

On to `Oc1nc(-c2ccccn2)nc2c(-c3ccc4c(c3)OCO4)csc12` [drawing 2271], for which the inhibition at 30 µM in assay [1] and in assay [2] was 76 to 100% throughout.

In the case of `O=C(Cc1cccs1)Nc1nnc(-c2ccccn2)[nH]1` [drawing 1953], the inhibition at 30 µM in assay [1] and in assay [2] was 1 to 25% in each case.

Consider `Nc1nc(O)c2scc(C(=O)N3CCC(N4CCOCC4)CC3)c2n1` [drawing 2093], for which the inhibition at 30 µM in assay [1] is 1 to 25%; in assay [2], 0%.

Regarding `O=C(c1csc2c(O)nc(-c3ccccn3)nc12)N1CCOC(c2cccc(F)c2)C1` (stereo not shown) [drawing 2170], the figures for the inhibition at 30 µM in assay [1] and in assay [2] were 1 to 25% and 26 to 50%, respectively.

`COc1ccc(-c2csc3[nH]c(-c4ccccn4)nc(=O)c23)cc1` [drawing 2023]: the values for the inhibition at 30 µM in assay [1] and in assay [2] were 1 to 25% and 26 to 50%, respectively.

As to `OCC1(c2ccc(-c3nc(-c4ccccn4)nc(-c4ccc(C5(CO)CC5)cc4)c3Oc3ccccc3)cc2)CC1` [drawing 2359], the inhibition at 30 µM in assay [1] and in assay [2] was 0% in each case.

For `CS(=O)(=O)N1CCCc2cc(C(=O)N3CCCc4c(O)nc(-c5ccccn5)nc43)ccc21` [drawing 2077], the inhibition at 30 µM lay within 1 to 25% in assay [1] and 76 to 100% in assay [2].

Take `N#Cc1ccc2c(c1)CCCC2C(=O)Nc1ccnc(-c2ccccn2)n1` (stereo not shown) [drawing 2248]: the inhibition at 30 µM in assay [1] is 0%; in assay [2], 1 to 25%.

Consider `CC(C)c1noc(CCC(=O)Nc2nnc(-c3ccccn3)[nH]2)n1` [drawing 1952], for which the inhibition at 30 µM in assay [1] is 0%; in assay [2] it was 1 to 25%.

Regarding `CCc1ccccc1OCC(=O)Nc1nnc(-c2ccccn2)[nH]1` [drawing 1982], the inhibition at 30 µM in assay [1] was 0%; in assay [2], 26 to 50%.

Consider `Cc1nc(-c2ccccn2)nc(O)c1CCC(=O)Nc1cc(F)ccc1F` [drawing 2032], for which the inhibition at 30 µM in assay [1] and in assay [2] was 1 to 25% in each case.

Regarding `Cn1ccnc1-c1nc(O)c2scc(-c3ccc(C(C)(C)C)cc3)c2n1` [drawing 2446], the inhibition at 30 µM in assay [1] is 0%; in assay [2], 1 to 25%.

For the compound `CC(Oc1ccccc1C#N)C(=O)Nc1nnc(-c2ccccn2)[nH]1` (stereo not shown) [drawing 1966], the inhibition at 30 µM was 1 to 25% in assay [1] and 0% in assay [2].

On to `COc1nc(-c2ccccn2)nc2c(C3CCCCC3)csc12` [drawing 2317], for which the inhibition at 30 µM in assay [1] fell in the range of 1 to 25%; in assay [2], 26 to 50%.

Consider `CCn1nc(C)cc1-c1csc2c(O)nc(-c3ccccn3)nc12` [drawing 2295], for which the inhibition at 30 µM in assay [1] is 51 to 75%; in assay [2], 76 to 100%.

Regarding `Cn1ccnc1-c1nc(NCCCO)c2c(-c3ccccc3)c(-c3ccccc3)sc2n1` [drawing 2406], the figures for the inhibition at 30 µM in assay [1] and in assay [2] were 26 to 50% and 51 to 75%, respectively.

Regarding `O=C(Nc1nnc(-c2ccccn2)[nH]1)c1ncoc1-c1cccs1` [drawing 1963], the inhibition at 30 µM was in the range of 1 to 25% in assay [1] and 26 to 50% in assay [2].

Regarding `O=C(c1csc2c(O)nc(-c3ccccn3)nc12)N1CCN(Cc2ccc(O)c(Cl)c2)CC1` [drawing 2190], the inhibition at 30 µM lay within 1 to 25% in assay [1] and 76 to 100% in assay [2].

On to `COc1cn(-c2ccccc2)nc1C(=O)Nc1nnc(-c2ccccn2)[nH]1` [drawing 2000], for which the inhibition at 30 µM in assay [1] was 0%; in assay [2], 26 to 50%.

On to `CC(C)(C(=O)Nc1nc(-c2ccccn2)nc2sccc12)c1ccc(C#N)cc1` [drawing 2178], for which the inhibition at 30 µM was in the range of 1 to 25% in assay [1] and 76 to 100% in assay [2].

As to `Cn1cc(-c2nc(C(=O)Nc3nnc(-c4ccccn4)[nH]3)cs2)cn1` [drawing 1944], the inhibition at 30 µM in assay [1] was 1 to 25%; in assay [2], 51 to 75%.

Turning to `c1ccc(-c2nc(NCC3CCCO3)c3ccsc3n2)nc1` (stereo not shown) [drawing 2129], the values for the inhibition at 30 µM in assay [1] and in assay [2] were 1 to 25% and 51 to 75%, respectively.

For the compound `Cc1ccc(-c2ccc(Oc3ccc(C(F)(F)F)cn3)c(C)c2)cc1` [drawing 2056], the inhibition at 30 µM in assay [1] is 1 to 25%; in assay [2], 0%.

`Oc1nc(-c2ccncn2)nc2c(-c3cccc(C(F)(F)F)c3)csc12` [drawing 2434]: the inhibition at 30 µM in assay [1] is 0%; in assay [2], 26 to 50%.

As to `COc1ccc(COCC(=O)N2CCCc3c(O)nc(-c4ccccn4)nc32)cc1` [drawing 2072], the inhibition at 30 µM in assay [1] lay in the range of 1 to 25%; in assay [2], 51 to 75%.

In the case of `Oc1nc(-c2ccccn2)nc2c(-c3ccccc3)csc12` [drawing 2120], the inhibition at 30 µM in assay [1] is 51 to 75%; in assay [2], 76 to 100%.

With `COCCCn1ccc(Nc2cc(C)nc(-c3ccccn3)n2)n1` [drawing 2041], the figures for the inhibition at 30 µM in assay [1] and in assay [2] were 0% and 26 to 50%, respectively.

Take `COCCNc1nc(-c2ccncn2)nc2sc(-c3ccccc3)c(-c3ccccc3)c12` [drawing 2401]: the inhibition at 30 µM was 51 to 75% in assay [1] and 76 to 100% in assay [2].

In the case of `COCCNc1nc(-c2cn(C)cn2)nc2sc(-c3ccncc3)c(-c3ccccc3)c12` [drawing 2357], the inhibition at 30 µM was in the range of 1 to 25% in assay [1] and 51 to 75% in assay [2].

Turning to `Cc1cccc(C(=O)Nc2nnc(-c3ccccn3)[nH]2)n1` [drawing 1976], the inhibition at 30 µM in assay [1] was 0%; in assay [2] it was 1 to 25%.

Consider `Oc1nc(-c2ccccn2)nc2c(-c3ccccc3F)csc12` [drawing 2260], for which the figures for the inhibition at 30 µM in assay [1] and in assay [2] were 51 to 75% and 76 to 100%, respectively.

For the compound `COc1c(O)nc(-c2ccccn2)nc1Oc1cccc(C(F)(F)F)c1` [drawing 2384], the inhibition at 30 µM in assay [1] fell in the range of 26 to 50%; in assay [2] it was 1 to 25%.

As for `Nc1nc(O)c2sc(-c3cccc(C(=O)NC4CCNC4=O)c3)cc2n1` (stereo not shown) [drawing 2369], the inhibition at 30 µM in assay [1] and in assay [2] was 1 to 25% throughout.

In the case of `COc1ccc(F)cc1-c1csc2c(O)nc(-c3ccccn3)nc12` [drawing 2266], the inhibition at 30 µM fell in the range of 26 to 50% in assay [1] and 76 to 100% in assay [2].

On to `CC(c1ccccc1)N1CCN(C(=O)c2csc3c(O)nc(-c4ccccn4)nc23)CC1` (stereo not shown) [drawing 2215], for which the inhibition at 30 µM in assay [1] was 0%; in assay [2], 51 to 75%.

Consider `O=C(Nc1nnc(-c2ccccn2)[nH]1)C1CC1c1ccc(F)cc1` (stereo not shown) [drawing 1974], for which the inhibition at 30 µM in assay [1] and in assay [2] was 1 to 25% each time.

Consider `O=C(NCCc1ccnc(O)n1)c1csc2nc(-c3ccccn3)nc(N3CCOCC3)c12` [drawing 2290], for which the inhibition at 30 µM is 0% in assay [1] and 1 to 25% in assay [2].

On to `COc1ccc(CCC(=O)Nc2nnc(-c3ccccn3)[nH]2)cc1` [drawing 1939], for which the inhibition at 30 µM in assay [1] is 0%; in assay [2], 1 to 25%.

Turning to `Nc1nc(O)c2scc(Br)c2n1` [drawing 2089], the inhibition at 30 µM in assay [1] and in assay [2] was 1 to 25% in each case.

`Oc1nc(-c2ccccn2)nc2c(C3CCCC3)csc12` [drawing 2337]: the inhibition at 30 µM in assay [1] was 26 to 50%; in assay [2], 51 to 75%.

`c1ccc(-c2nc(N3CCOCC3)c3ccsc3n2)nc1` [drawing 2127]: the inhibition at 30 µM in assay [1] and in assay [2] was 1 to 25% throughout.
